Assay results reported in patent US20110268842A1 (SIGMA ALIMENTOS, S.A. DE C.V., priority 2008, published 2011).

System: homocysteine concentration in the blood
Assay: not given
Conditions: 400 μg/day; cited from earlier work

Question: For `Nc1nc2ncc(CNc3ccc(C(=O)N[C@@H](CCC(=O)O)C(=O)O)cc3)nc2c(=O)[nH]1` [folic acid], which “effect on homocysteine concentration in the blood” value is on record?
Answer: decrease the levels of homocysteine concentration in the blood

System: not given
Assay: not given
Conditions: supplements before conception; cited from earlier work

Question: Which “reduction of the risks of neurological defects in the future child” value does the source give for `Nc1nc2ncc(CNc3ccc(C(=O)N[C@@H](CCC(=O)O)C(=O)O)cc3)nc2c(=O)[nH]1` [folic acid] here?
Answer: 50%

System: Bifidobacterium animalis PTA-9175
Assay: Determination of resistance patterns (Kirby-Bauer, inhibition halos)
Format: cell-based
Conditions: sensidiscs on Mueller-Hinton agar; diameter 0 = resistant
Experimental: Method: To determine the phenotype of resistance to antibiotics the Kirby-Bauer method was used. From a young culture of 18 to 24 hours several colonies were taken with a sterile swab and inoculated into a test tube with a sterile, isotonic saline solution. The inoculum was visually adjusted to a turbidity of 0.5 on the McFarland scale. Within 15 minutes the inoculum was adjusted, a sterile swab was introduced into the suspension and when removing it the excess liquid was eliminated. Agar Mueller-Hinton plates were inoculated, leaving no free zone, sliding the swab across the surface of the agar 3 times, rotating the plate 60° each time and finally passing it over the periphery of the agar to achieve a uniform seed.
The plates were left to dry for 3 to 5 min and the sensidiscs of the following antibiotics were placed: norfloxacin, cephalothin, azithromycin, tobramycin, ampicillin/sulbactam, erythromycin cefatoxim, nalidixic acid, ceftazidime, aztreonam, vancomycin, cefuroxime, rifampicyn, nitrofurantoin, oxacylin, nefilmicin amikacin, kanamycin ticarcillin, clindamycin, ampicillin.
All strains with an inhibition diameter of 0 are resistant to the tested antibiotic.

Question: With `NCC[C@H](O)C(=O)N[C@@H]1C[C@H](N)[C@@H](O[C@H]2O[C@H](CN)[C@@H](O)[C@H](O)[C@H]2O)[C@H](O)[C@H]1O[C@H]1O[C@H](CO)[C@@H](O)[C@H](N)[C@H]1O` [Amikacin] as the compound, how does the “Inhibition halo (mm)” value read?
Answer: 0 mm

Question: Which “Inhibition halo (mm)” value does the source give for `CC1(C)S[C@@H]2[C@H](NC(=O)[C@H](N)c3ccccc3)C(=O)N2[C@H]1C(=O)O` [Ampicillin] here?
Answer: 35 mm

Question: For `CC[C@H]1OC(=O)[C@H](C)[C@@H](O[C@H]2C[C@@](C)(OC)[C@@H](O)[C@H](C)O2)[C@H](C)[C@@H](O[C@@H]2O[C@H](C)C[C@H](N(C)C)[C@H]2O)[C@](C)(O)C[C@@H](C)CN(C)[C@H](C)[C@@H](O)[C@]1(C)O` [Azithromycin], which “Inhibition halo (mm)” value is on record?
Answer: 30 mm

Question: Which “Inhibition halo (mm)” value does the source give for `C[C@H]1[C@H](NC(=O)/C(=N\OC(C)(C)C(=O)O)c2csc(N)n2)C(=O)N1S(=O)(=O)O` [Aztreonam] here?
Answer: 0 mm

Question: With `CO/N=C(\C(=O)N[C@@H]1C(=O)N2C(C(=O)O)=C(COC(C)=O)CS[C@H]12)c1csc(N)n1` [Cefatoxim] as the compound, how does the “Inhibition halo (mm)” value read?
Answer: 40 mm

Question: Which “Inhibition halo (mm)” value does the source give for `CC(C)(O/N=C(\C(=O)N[C@@H]1C(=O)N2C(C(=O)[O-])=C(C[n+]3ccccc3)CS[C@H]12)c1csc(N)n1)C(=O)O` [Ceftazidime] here?
Answer: 38 mm

Question: For `CO/N=C(\C(=O)N[C@@H]1C(=O)N2C(C(=O)O)=C(COC(N)=O)CS[C@H]12)c1ccco1` [Cefuroxime], which “Inhibition halo (mm)” value is on record?
Answer: 25 mm

Question: With `CC(=O)OCC1=C(C(=O)O)N2C(=O)[C@@H](NC(=O)Cc3cccs3)[C@H]2SC1` [Cephalothin] as the compound, how does the “Inhibition halo (mm)” value read?
Answer: 24 mm

Question: For `CCC[C@@H]1C[C@@H](C(=O)N[C@@H]([C@H]2O[C@H](SC)[C@H](O)[C@@H](O)[C@H]2O)[C@H](C)Cl)N(C)C1` [Clindamycin], which “Inhibition halo (mm)” value is on record?
Answer: 43 mm

Question: With `CC[C@H]1OC(=O)[C@H](C)[C@@H](O[C@H]2C[C@@](C)(OC)[C@@H](O)[C@H](C)O2)[C@H](C)[C@@H](O[C@@H]2O[C@H](C)C[C@H](N(C)C)[C@H]2O)[C@](C)(O)C[C@@H](C)C(=O)[C@H](C)[C@@H](O)[C@]1(C)O` [Erythromycin] as the compound, how does the “Inhibition halo (mm)” value read?
Answer: 40 mm

Question: For `NC[C@H]1O[C@H](O[C@H]2[C@H](O)[C@@H](O[C@H]3O[C@H](CO)[C@@H](O)[C@H](N)[C@H]3O)[C@H](N)C[C@@H]2N)[C@H](O)[C@@H](O)[C@@H]1O` [Kanamycin], which “Inhibition halo (mm)” value is on record?
Answer: 0 mm

Question: Which “Inhibition halo (mm)” value does the source give for `CCn1cc(C(=O)O)c(=O)c2ccc(C)nc21` [Nalidixic acid] here?
Answer: 0 mm

Question: Which “Inhibition halo (mm)” value does the source give for `O=C1CN(/N=C/c2ccc([N+](=O)[O-])o2)C(=O)N1` [Nitrofurantoin] here?
Answer: 40 mm

Question: For `CCn1cc(C(=O)O)c(=O)c2cc(F)c(N3CCNCC3)cc21` [Norfloxacin], which “Inhibition halo (mm)” value is on record?
Answer: 0 mm

Question: Which “Inhibition halo (mm)” value does the source give for `CC1COc2c(N3CCN(C)CC3)c(F)cc3c(=O)c(C(=O)O)cn1c23` (stereo not drawn) [Ofloxacin] here?
Answer: 12 mm

Question: For `Cc1onc(-c2ccccc2)c1C(=O)N[C@@H]1C(=O)N2[C@@H]1SC(C)(C)[C@@H]2C(=O)O` [Oxacylin], which “Inhibition halo (mm)” value is on record?
Answer: 0 mm

Question: Which “Inhibition halo (mm)” value does the source give for `CC1(C)S[C@@H]2[C@H](NC(=O)[C@H](C(=O)O)c3ccsc3)C(=O)N2[C@H]1C(=O)O` [Ticarcillin] here?
Answer: 40 mm

Question: Which “Inhibition halo (mm)” value does the source give for `NC[C@H]1O[C@H](O[C@H]2[C@H](O)[C@@H](O[C@H]3O[C@H](CO)[C@@H](O)[C@H](N)[C@H]3O)[C@H](N)C[C@@H]2N)[C@H](N)C[C@@H]1O` [Tobramycin] here?
Answer: 0 mm

Question: Which “Inhibition halo (mm)” value does the source give for `CN[C@H](CC(C)C)C(=O)N[C@H]1C(=O)N[C@@H](CC(N)=O)C(=O)N[C@H]2C(=O)N[C@H]3C(=O)N[C@H](C(=O)N[C@H](C(=O)O)c4cc(O)cc(O)c4-c4cc3ccc4O)[C@H](O)c3ccc(c(Cl)c3)Oc3cc2cc(c3O[C@@H]2O[C@H](CO)[C@@H](O)[C@H](O)[C@H]2O[C@H]2C[C@](C)(N)[C@H](O)[C@H](C)O2)Oc2ccc(cc2Cl)[C@H]1O` [Vancomycin] here?
Answer: 27 mm

Question: With Ampicillin/Sulbactam as the compound, how does the “Inhibition halo (mm)” value read?
Answer: 30 mm

Question: Which “Inhibition halo (mm)” value does the source give for Nefilmicin here?
Answer: 0 mm

Question: With Rifampicyn as the compound, how does the “Inhibition halo (mm)” value read?
Answer: 2 mm
